Measured values reported in patent US7494987B2, “Agent for treating respiratory diseases containing 4-hydroxypiperidine derivative as active ingredient” (priority 2002, dated 2009).

What was measured:
[1] = tested on: Citric Acid-Induced Cough Reflex in Guinea Pigs; assay: Inhibitory effect on citric acid-induced cough reflex in guinea pigs (Experimental Example 1-1, plethysmograph); format: in vivo; details: oral, cough measured 1 hr after treatment
Experimental: Guinea pigs were fasted overnight. They were fixed to a plethysmograph, and then the change of inner pressure in the plethysmograph (body side) was recorded on an ink-recording paper (Nihon Kohden Corporation; WI-642G) via the differential pressure transducer (Nihon Kohden Corporation; TP-602T) and the respiration amplifier (Nihon Kohden Corporation; AR-601G). Using a nebulizer (OMRON Corporation; NE-U12), 20 W/V % citric acid solution was sprayed into the plethysmograph (head side) for 2 min (about 1 mL/min). The number of cough response for 15 min after the spray was measured.
(§1) The cough response was measured 3 hrs before and 1 hr after oral treatment. The test compound was not administered to the guinea pigs showing 5 coughs response or less before the treatment. The ratio of cough response between before and after the treatment (Post/Pre×100) was calculated, and the percent inhibition of the test compound on cough reflex induced by citric acid was determined according to the following formula: [(CRRcontrol−CRRtest)/(CRRcontrol)]×100 (%) • CRRcontrol: Ratio (%) of cough response in the control group • CRRtest: Ratio (%) of cough response in the compound-treated group

[2] = tested on: Citric Acid-Induced Cough Reflex in Guinea Pigs; assay: Inhibitory action on citric acid-induced cough reflex in guinea pigs (Experimental Example 1-2, nasal inhalation-exposure apparatus); format: in vivo; details: oral, 30 mg/kg, cough measured 1 hr after treatment
Experimental: Guinea pigs were fasted overnight. They were fixed to an nasal inhalation-exposure apparatus for small animals (M.I.P.S. Co., Ltd.), and then 20 W/V % citric acid solution was sprayed into the plethysmograph for 2 min (about 1 mL/min) using a nebulizer (M.I.P.S. Co., Ltd.). The number of cough response for 15 min after the spray was measured.
as §1, with “5 cough responses” for “5 coughs response”, “compound-treated group.” for “compound-treated group”

SMILES	melting point	further results
CN(CC1(O)CCCN(CCc2ccc(C#N)cc2)C1)c1ccc(C(=O)O)cc1.Cl (stereo not drawn)	220.1 to 233.3 °C	
COC(=O)c1ccc(N(C)CC2(O)CN(CCc3ccc(C#N)cc3)C2)cc1 [Example 10, methyl 4-({1-[2-(4-cyanophenyl)ethyl]-3-hydroxyazetidin-3-ylmethyl}methylamino)benzoate]	145.5 to 149.1 °C	
CN(CC1(O)CCN(CCOc2ccc(C#N)cc2)CC1)c1ccc(C(=O)O)cc1.Cl	258.4 to 260.1 °C	
CN(CC1(O)CCCN(CCc2ccc(C#N)cc2)C1)c1ccc(C(=O)OC(C)(C)C)cc1 (stereo not drawn) [Example 9, tert-butyl 4-({1-[2-(4-cyanophenyl)ethyl]-3-hydroxypiperidin-3-ylmethyl}methylamino)benzoate]	41.2 to 44.1 °C	
CN(CC1(O)CCCN(CCc2ccc(C#N)cc2)C1)c1ccc(C(=O)O)cc1 (stereo not drawn) [Example 15, 4-({1-[2-(4-cyanophenyl)ethyl]-3-hydroxypiperidin-3-ylmethyl}methylamino)benzoic acid]	166.9 to 181.3 °C	
COc1cc(N(C)CC2(O)CCN(CCc3ccc(C#N)cc3)CC2)c(Cl)cc1C(=O)O [Example 7, 5-chloro-4-({1-[2-(4-cyanophenyl)ethyl]-4-hydroxypiperidin-4-ylmethyl}methylamino)-2-methoxybenzoic acid]	226.8 to 228.3 °C	
Cn1c(=O)c2[nH]cnc2n(C)c1=O [Theophylline]		Percent inhibition on cough reflex ([1]; 20 mg/kg): 37%
COC(=O)c1ccc(N(C)CC2(OC)CCN(CCc3ccc(C#N)cc3)CC2)cc1 [Example 25, methyl 4-({1-[2-(4-cyanophenyl)ethyl]-4-methoxypiperidin-4-ylmethyl}methylamino)benzoate]	126.9 to 134.5 °C	
CN(CC1(O)CCN(CCc2ccc(C#N)cc2)CC1)c1ccc(C(=O)NO)cc1.Cl	191.3 to 193.9 °C	
COC(=O)c1ccc([S+]([O-])CC2(O)CCN(CCc3ccc(C#N)cc3)CC2)cc1 (stereo not drawn) [Example 44, methyl 4-{1-[2-(4-cyanophenyl)ethyl]-4-hydroxypiperidin-4-ylmethylsulfinyl}benzoate]	169.6 to 174.5 °C	
CN(CCC1(O)CCN(CCc2ccc(C#N)cc2)CC1)c1ccc(C(=O)O)cc1 [Example 16, 4-[(2-{1-[2-(4-cyanophenyl)ethyl]-4-hydroxypiperidin-4-yl}ethyl)methylamino]benzoic acid]	146.8 to 148.4 °C	
CN(CC1(O)CCN(CCc2ccc(C#N)cc2)CC1)c1ccc(C(=O)O)cc1Cl.Cl	254.2 to 258.9 °C	
COC(=O)c1ccc(SCC2(O)CCN(CCc3ccc(C#N)cc3)CC2)cc1 [Example 42, methyl 4-{1-[2-(4-cyanophenyl)ethyl]-4-hydroxypiperidin-4-ylmethylthio}benzoate]	119.1 to 120.8 °C	
CN(CC1(O)CCN(CCc2ccc(C#N)cc2)CC1)c1ccc(C(=O)O)cc1Cl [Example 6, 3-chloro-4-({1-[2-(4-cyanophenyl)ethyl]-4-hydroxypiperidin-4-ylmethyl}methylamino)benzoic acid]	110.7 to 112.4 °C	
CN(CC1(O)CCN(Cc2ccc(C#N)cc2)CC1)c1ccc(C(=O)O)cc1.Cl	153.1 to 157.7 °C	
COc1cc(C(=O)O)ccc1N(C)CC1(O)CCN(CCc2ccc(C#N)cc2)CC1 [Example 4, 4-({1-[2-(4-cyanophenyl)ethyl]-4-hydroxypiperidin-4-ylmethyl}methylamino)-3-methoxybenzoic acid]	252.6 °C (dec.)	
Cc1cc(C(=O)O)ccc1N(C)CC1(O)CCN(CCc2ccc(C#N)cc2)CC1 [Example 3, 4-({1-[2-(4-cyanophenyl)ethyl]-4-hydroxypiperidin-4-ylmethyl}methylamino)-3-methylbenzoic acid]	103.6 to 108.7 °C	
COC(=O)c1ccc(OCC2(O)CCN(CCc3ccc(C#N)cc3)CC2)cc1 [Example 13, methyl 4-{1-[2-(4-cyanophenyl)ethyl]-4-hydroxypiperidin-4-ylmethoxy}benzoate]	118.6 to 120.6 °C	
CN(CC1(O)CCN(CCc2ccc(C#N)cc2)CC1)c1ccc(C(=O)O)c(Cl)c1.Cl	145.2 to 148 °C	

SMILES	melting point	further results
CN(CC1(O)CCN(CCc2ccc(C#N)cc2)C1)c1ccc(C(=O)O)cc1.Cl (stereo not drawn) [Example 29, 4-({1-[2-(4-Cyanophenyl)ethyl]-3-hydroxypyrrolidin-3-ylmethyl}methylamino)benzoic acid monohydrochloride]	122.8 to 132.5 °C	Percent inhibition on cough reflex [2]: 39%
CN(CC1(O)CCN(CCc2ccc(C#N)cc2)CC1)c1ccc(C(=O)NOC2CCCCO2)cc1 (stereo not drawn) [Example 23, 4-({1-[2-(4-cyanophenyl)ethyl]-4-hydroxypiperidin-4-ylmethyl}methylamino)-N-(tetrahydropyran-2-yloxy)benzamide]	100.9 to 102.1 °C	
Cc1cc(C(=O)O)ccc1N(C)CC1(O)CCN(CCc2ccc(C#N)cc2)CC1.Cl	127.1 to 132.7 °C	
CN(CC1(O)CCN(CCc2ccc(C(F)(F)F)cc2)CC1)c1ccc(C(=O)O)cc1.Cl [Example 35, 4-({4-hydroxy-1-[2-(4-trifluoromethylphenyl)ethyl]piperidin-4-ylmethyl}methylamino)benzoic acid monohydrochloride]	235.1 to 246.9 °C	Percent inhibition on cough reflex [2]: 43%
CN(CC1(O)CCN(CCc2ccc(C#N)cc2)CC1)c1ccc(C(=O)O)c(Cl)c1 [Example 5, 2-chloro-4-({1-[2-(4-cyanophenyl)ethyl]-4-hydroxypiperidin-4-ylmethyl}methylamino)benzoic acid]	186.2 to 189.6 °C	
COc1cc(N(C)CC2(O)CCN(CCc3ccc(C#N)cc3)CC2)c(Cl)cc1C(=O)O.Cl	116.3 to 120.8 °C	
COC(=O)c1ccc(N(C)CC2(O)CCN(Cc3ccc(C#N)cc3)CC2)cc1 [Example 20, methyl 4-{[1-(4-cyanobenzyl)-4-hydroxypiperidin-4-ylmethyl]methylamino}benzoate]	127.5 to 137.1 °C	
CN(CC1(O)CN(CCc2ccc(C#N)cc2)C1)c1ccc(C(=O)O)cc1 [Example 17, 4-({1-[2-(4-cyanophenyl)ethyl]-3-hydroxyazetidin-3-ylmethyl}methylamino)benzoic acid]	197.9 to 199.4 °C	
COC(=O)c1ccc(N(C)CC2(O)CCN(CCCc3ccc(C#N)cc3)CC2)cc1 [Example 21, methyl 4-({1-[3-(4-cyanophenyl)propyl]-4-hydroxypiperidin-4-ylmethyl}methylamino)benzoate]	126.8 to 129.7 °C	
CN(CC1(O)CCN(CCCc2ccc(C#N)cc2)CC1)c1ccc(C(=O)O)cc1.Cl	150.1 to 151.2 °C	
COc1ccc2c3c1O[C@H]1[C@@H](O)C=C[C@H]4[C@@H](C2)N(C)CC[C@@]341 [Codeine phosphate]		Percent inhibition on cough reflex ([1]; 10 mg/kg): 40%; Percent inhibition on cough reflex ([1]; 30 mg/kg): 44%; Percent inhibition on cough reflex ([1]; 60 mg/kg): 66%
COC(=O)c1ccc(N(C)CC2(O)CCN(CCc3ccc(C(F)(F)F)cc3)CC2)cc1 [Example 24, methyl 4-({4-hydroxy-1-[2-(4-trifluoromethylphenyl)ethyl]piperidin-4-ylmethyl}methylamino)benzoate]	142.7 to 143.9 °C	
CN(CC1(O)CCN(CCc2ccc(C#N)cc2)C1)c1ccc(C(=O)O)cc1 (stereo not drawn) [Example 14, 4-({1-[2-(4-cyanophenyl)ethyl]-3-hydroxypyrrolidin-3-ylmethyl}methylamino)benzoic acid]	106.1 to 130.8 °C	
CN(CCC1(O)CCN(CCc2ccc(C#N)cc2)CC1)c1ccc(C(=O)O)cc1.Cl	231.3 to 236.4 °C	
Cl.N#Cc1ccc(CCN2CCC(O)(C[S+]([O-])c3ccc(C(=O)O)cc3)CC2)cc1 (stereo not drawn)	279.7 °C (dec.)	
COC(=O)c1ccc(S(=O)(=O)CC2(O)CCN(CCc3ccc(C#N)cc3)CC2)cc1 [Example 46, methyl 4-{1-[2-(4-cyanophenyl)ethyl]-4-hydroxypiperidin-4-ylmethylsulfonyl}benzoate]	135.4 to 137.2 °C	
COC1(CN(C)c2ccc(C(=O)O)cc2)CCN(CCc2ccc(C#N)cc2)CC1.Cl	226.3 to 230.7 °C	
COC(=O)c1ccc(N(C)CC2(O)CCN(CCc3ccc(C#N)cc3)CC2)cc1 [Example 12, methyl 4-({1-[2-(4-cyanophenyl)ethyl]-4-hydroxypiperidin-4-ylmethyl}methylamino)benzoate]	140.5 to 142.2 °C	
COC(=O)c1ccc(N(C)CC2(O)CCN(CCOc3ccc(C#N)cc3)CC2)cc1 [Example 22, methyl 4-({1-[2-(4-cyanophenoxy)ethyl]-4-hydroxypiperidin-4-ylmethyl}methylamino)benzoate]	112.5 to 113 °C	
